Measured values reported in PMC9671096 (Molecular pharmaceutics, 2021).
Each block holds one molecule with its values, some of them ahead of it. Where a SMILES comes first, the peptide text is derived from it. The star is where a group is joined. Cbz = O=C(OCc1ccccc1)*

Assays:
HiBiT-GPER = HiBiT-GPER (Homo sapiens, UniProt Q99527); assay type: cell-based; conditions: for effect on UI-EP001/UI-EP002-mediated degradation of HiBiT-GPER: with 100 μM UI-EP001 or UI-EP002, 1 hour, MG132 10 μM, chloroquine 100 μM, E2 or aldosterone 100 nM-100 μM
HiBiT-ERα = biological target: T1, HiBiT-ERα (Homo sapiens, UniProt P03372); assay type: cell-based; conditions: for effect on UI-EP001/UI-EP002-mediated degradation of HiBiT-ERα: with 100 μM UI-EP001 or UI-EP002, 1 hour, MG132 10 μM, chloroquine 100 μM, E2 or aldosterone 100 nM-100 μM
T1 sequence (P03372 1-595): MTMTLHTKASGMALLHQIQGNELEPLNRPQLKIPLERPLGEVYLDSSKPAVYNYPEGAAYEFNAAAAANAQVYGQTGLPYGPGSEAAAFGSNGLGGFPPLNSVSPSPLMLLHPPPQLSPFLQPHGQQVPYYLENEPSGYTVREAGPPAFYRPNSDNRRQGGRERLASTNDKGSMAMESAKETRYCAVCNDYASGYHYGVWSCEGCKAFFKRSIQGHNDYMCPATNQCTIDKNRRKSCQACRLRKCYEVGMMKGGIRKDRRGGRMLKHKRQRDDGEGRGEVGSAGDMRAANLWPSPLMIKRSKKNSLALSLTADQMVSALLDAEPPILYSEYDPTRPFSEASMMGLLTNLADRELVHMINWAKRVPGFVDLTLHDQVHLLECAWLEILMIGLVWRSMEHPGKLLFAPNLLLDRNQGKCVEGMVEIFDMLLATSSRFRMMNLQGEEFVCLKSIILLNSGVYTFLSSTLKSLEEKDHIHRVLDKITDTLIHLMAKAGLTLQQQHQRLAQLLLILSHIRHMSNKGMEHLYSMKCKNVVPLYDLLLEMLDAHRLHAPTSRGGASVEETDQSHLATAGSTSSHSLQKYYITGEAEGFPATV

GPER [1] = biological target: T2, GPER (Homo sapiens, UniProt Q99527); test: Intact cell competitive binding assay with E2-FITC tracer; conditions: intact SKBR3 cells, concentrations as high as 10 μM
GPER [2] = biological target: T2, GPER; test: Immunostaining of endogenous GPER in MCF-7 cells; assay type: cell-based; conditions: 1 hour
MCF-7 = test: Cell cycle analysis; assay type: cell-based, human; conditions: MCF-7, 10 μM, 24 hours
ERα = biological target: T3, ERα (Homo sapiens, UniProt P03372); test: Immunostaining of endogenous ERα in MCF-7 cells; assay type: cell-based; conditions: 1 hour
T3 sequence (P03372 1-595): T1 sequence (P03372 1-595)

ERβ = ERβ (Homo sapiens, UniProt Q92731); test: Immunostaining of endogenous ERβ in MCF-7 cells; assay type: cell-based; conditions: 1 hour
MDA-MB-231 = test: Cell cycle analysis; assay type: cell-based, human; conditions: MDA-MB-231, 10 μM, 24 hours
HCC-1806 = test: Cell cycle analysis; assay type: cell-based, human; conditions: HCC-1806, 10 μM, 24 hours
SKBR3 = test: Cell cycle analysis; assay type: cell-based, human; conditions: SKBR3, 10 μM, 24 hours
ERs = assay type: binding, human; conditions: IC50 of 17β-E2 divided by IC50 of test compound; MCF-7 cytosol

Sequence of HiBiT-GPER (Q99527 whole entry): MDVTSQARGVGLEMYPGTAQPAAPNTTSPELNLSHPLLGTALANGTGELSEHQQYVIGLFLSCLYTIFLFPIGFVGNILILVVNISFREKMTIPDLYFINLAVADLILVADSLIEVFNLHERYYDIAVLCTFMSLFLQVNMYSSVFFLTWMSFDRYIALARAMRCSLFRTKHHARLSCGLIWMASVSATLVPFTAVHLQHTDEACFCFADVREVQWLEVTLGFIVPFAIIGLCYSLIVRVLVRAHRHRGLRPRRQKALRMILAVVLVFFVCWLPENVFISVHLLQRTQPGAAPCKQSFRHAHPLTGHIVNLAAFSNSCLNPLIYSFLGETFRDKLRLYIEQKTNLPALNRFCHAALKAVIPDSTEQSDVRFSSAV
T2 sequence (Q99527 whole entry): as above
Sequence of ERβ (Q92731 whole entry): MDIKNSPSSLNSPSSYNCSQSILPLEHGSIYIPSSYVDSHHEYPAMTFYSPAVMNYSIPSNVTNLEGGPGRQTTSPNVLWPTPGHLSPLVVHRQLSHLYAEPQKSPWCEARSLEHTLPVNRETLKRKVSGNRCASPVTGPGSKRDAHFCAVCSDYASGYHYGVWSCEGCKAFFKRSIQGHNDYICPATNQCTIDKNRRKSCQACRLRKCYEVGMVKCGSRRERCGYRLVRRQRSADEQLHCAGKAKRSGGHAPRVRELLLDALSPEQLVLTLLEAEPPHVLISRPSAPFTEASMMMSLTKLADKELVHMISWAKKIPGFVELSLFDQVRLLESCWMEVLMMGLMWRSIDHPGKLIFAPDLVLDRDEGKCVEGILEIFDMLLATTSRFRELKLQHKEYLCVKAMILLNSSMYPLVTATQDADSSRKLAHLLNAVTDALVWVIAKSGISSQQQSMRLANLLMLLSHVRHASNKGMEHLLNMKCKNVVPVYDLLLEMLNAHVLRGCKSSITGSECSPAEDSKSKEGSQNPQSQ

effect on UI-EP001/UI-EP002-mediated degradation of HiBiT-GPER (HiBiT-GPER): had no such effect
SMILES: CCN(CC)CCCC(C)Nc1ccnc2cc(Cl)ccc12 (centres unmarked) [chloroquine, chloroquine diphosphate]

SMILES: CC(C)C[C@@H](C=O)NC(=O)[C@H](CC(C)C)NC(=O)[C@H](CC(C)C)NC(=O)OCc1ccccc1 [MG132] (Cbz-Leu-Leu-Leu-aldehyde)
effect on UI-EP001/UI-EP002-mediated degradation of HiBiT-GPER (HiBiT-GPER): reversed
effect on UI-EP001/UI-EP002-mediated degradation of HiBiT-ERα (HiBiT-ERα): reversed

competition for E2-FITC binding to GPER (GPER [1]): unable to compete
decrease of HiBiT-GPER (HiBiT-GPER; 100 μM, 1 hour): did not show any significant decrease
receptor present following treatment (HiBiT-GPER; 100 μM, 8 hrs, text does not say which receptor (HiBiT-GPER or HiBiT-ER)): 83%
reduction of intracellular GPER (GPER [2]): did not impact
reduction of nuclear ERα (ERα): did not impact
reduction of nuclear ERβ (ERβ): did not impact
decrease of HiBiT-ERα (HiBiT-ERα; 100 μM, 1 hour): did not show any significant decrease
SMILES: Cc1ncsc1-c1ccc(CNC(=O)C2CC(O)CN2C(=O)C(NC(=O)COCCOCCOCCOCC(=O)O)C(C)(C)C)cc1 (centres unmarked) [Partial PROTAC]
cell cycle distribution shift (G2/M arrest) (MCF-7): much less significant shift
cell cycle distribution shift (G2/M arrest) (MDA-MB-231): much less significant shift
cell cycle distribution shift (G2/M arrest) (HCC-1806): much less significant shift
cell cycle distribution shift (G2/M arrest) (SKBR3): much less significant shift

ERs RBA% (ERs): 100.0%
SMILES: C[C@]12CC[C@@H]3c4ccc(O)cc4CC[C@H]3[C@@H]1CC[C@@H]2O [Estradiol, 17β-estradiol]

effect on UI-EP001/UI-EP002-mediated degradation of HiBiT-GPER (HiBiT-GPER): not aldosterone was capable of blocking
effect on UI-EP001/UI-EP002-mediated degradation of HiBiT-ERα (HiBiT-ERα): not aldosterone was capable of blocking
SMILES: C[C@]12CCC(=O)C=C1CC[C@@H]1[C@@H]2[C@@H](O)C[C@]2(C=O)[C@@H](C(=O)CO)CC[C@@H]12 [aldosterone]
